Earlier results, collected in patent US7939308B2, “Bio-based method for making mannitol” (The United States of America as represented by the …, priority 2002, dated 2011).
Converted amounts (≈) assume the structure as drawn.

Details: at 25° C.

OC[C@@H](O)[C@@H](O)[C@H](O)[C@H](O)CO [mannitol, Mannitol]
solubility limit: 180 mg/mL (≈ 988 mM)
